We go through 28 compounds from patent US10030006B2, “Coumarin based Hsp90 inhibitors with urea and ether substituents” (University of Kansas, priority 2013, dated 2018).

Common to all, as to assay type: cell-based
Assay [1] deals with SKBr3 (estrogen receptor negative, Her2 over-expressing breast cancer cells). Kind of assay: Anti-proliferation assay (MTS/PMS, 72 h), SKBr3. Here is the method: (§1) Cells were maintained in a 1:1 mixture of Advanced DMEM/F12 (Gibco) supplemented with non-essential amino acids, L-glutamine (2 mM), streptomycin (500 μg/mL), penicillin (100 units/mL), and 10% FBS. Cells were grown to confluence in a humidified atmosphere (37° C., 5% CO2), seeded (2000/well, 100 μL) in 96-well plates, and allowed to attach overnight. Compound at varying concentrations in DMSO (1% DMSO final concentration) was added, and cells were returned to the incubator for 72 h. At 72 h, the number of viable cells was determined using an MTS/PMS cell proliferation kit (Promega) per the manufacturer's instructions. Cells incubated in 1% DMSO were used at 100% proliferation, and values were adjusted accordingly. IC50 values were calculated from separate experiments performed in triplicate using GraphPad Prism.
(§2) The anti-proliferative activity of these compounds is evaluated against two breast cancer cell lines, SKBr3 (estrogen receptor negative, Her2 over-expressing breast cancer cells) and MCF-7 (estrogen receptor positive breast cancer cells).

Assay [2] concerns MCF-7 (estrogen receptor positive breast cancer cells). The assay can be described thus: Anti-proliferation assay (MTS/PMS, 72 h), MCF-7. On the procedure:
as §1, §2

A further assay concerns MRC5. Kind of assay: Anti-proliferation assay, MRC5 (normal). On the procedure:
as §1

In a further assay the test system is HMLE. The assay can be described thus: Anti-proliferation assay, HMLE (normal). On the procedure: as §1
Another assay deals with PC-3. Kind of assay: Anti-proliferation assay, PC-3. The conditions noted are these: Homo sapiens, PC-3; Table 6, substituted phenyl ureas; Prostate Cancer. Here is the method: as §1
The next assay concerns A-549. The assay can be described thus: Anti-proliferation assay, A-549. Particulars: Homo sapiens, A549; Table 6, substituted phenyl ureas. On the procedure:
as §1

Another assay has as its system MDA1986. The assay can be described thus: Anti-proliferation assay, MDA1986. The conditions noted are these: MDA1986; Table 6, substituted phenyl ureas; HSNCC. Here is the method:
as §1

The test system of another assay is JMAR. The assay can be described thus: Anti-proliferation assay, JMAR. Particulars: JMAR; Table 6, substituted phenyl ureas; HSNCC. Here is the method:
as §1

The next assay deals with MDAMB231. The assay can be described thus: Anti-proliferation assay, MDAMB231. Particulars: Homo sapiens, MDA-MB-231; Table 6, substituted phenyl ureas; Tri-Neg. Here is the method:
as §1

A further assay deals with DRO81-1. The assay can be described thus: Anti-proliferation assay, DRO81-1. The conditions noted are these: Table 6, substituted phenyl ureas; Thyroid. On the procedure:
as §1

Setting [3] is: Homo sapiens, SK-BR-3, Table 4, alkylamino analogues, read-out: SKBr3.
The mark [4] stands for this setting: Homo sapiens, MCF7, Table 4, alkylamino analogues, read-out: MCF-7.
[5] abbreviates: Homo sapiens, SK-BR-3, Table 5, alkylether derivatives with cyclic N-substitutions, read-out: SKBr3.
Setting [6] is: Homo sapiens, MCF7, Table 5, alkylether derivatives with cyclic N-substitutions, read-out: MCF-7.
[7] abbreviates: Homo sapiens, SK-BR-3, Table 8, biphenyl ureas, Breast Cancer, read-out: IC50 SKBr3.
[8] abbreviates: Homo sapiens, MCF7, Table 8, biphenyl ureas, Breast Cancer, read-out: IC50 MCF-3.
Where [9] appears, read: Table 3, cycloamine analogues, read-out: SKBr3.
[10] abbreviates: Table 3, cycloamine analogues, read-out: MCF-7.
The mark [11] stands for this setting: Homo sapiens, SK-BR-3, Table 6, substituted phenyl ureas, Breast Cancer, read-out: IC50 SKBr3.
[12] abbreviates: Homo sapiens, MCF7, Table 6, substituted phenyl ureas, Breast Cancer, read-out: IC50 MCF-3.
Setting [13] is: Homo sapiens, MRC5, Table 6, substituted phenyl ureas.
[14] abbreviates: HMLE, Table 6, substituted phenyl ureas.

Structures are written as SMILES. Read-outs that look alike come from different tables or passages of the source.

Turning to `CC(C)=CCc1cc(C(=O)Nc2cc3ccc(OCCCNC(C)(C)C)c(C)c3oc2=O)ccc1O` [Compound 68j, N-(7-(3-(tert-butylamino)propoxy)-8-methyl-2-oxo-2H-chromen-3-yl)-4-hydroxy-3-(3-methylbut-2-en-1-yl)benzamide], the IC50 in assay [1] (setting [3]) was determined as 0.66 ± 0.06 µM; in assay [2] (setting [4]), 0.95 ± 0.1 µM.
As for `CC(C)=CCc1cc(C(=O)Nc2cc3ccc(OCCCN(C)C(C)(C)C)c(C)c3oc2=O)ccc1O` [Compound 68k, N-(7-(3-(tert-butyl(methyl)amino)propoxy)-8-methyl-2-oxo-2H-chromen-3-yl)-4-hydroxy-3-(3-methylbut-2-en-1-yl)benzamide], the results for the IC50 in [1] (setting [3]) and in assay [2] (setting [4]) were 0.88 ± 0.1 µM and 1.14 ± 0.11 µM, respectively.
Take `CC(C)=CCc1cc(C(=O)Nc2cc3ccc(OCCCNC4CCCCC4)c(C)c3oc2=O)ccc1O` [Compound 70a, N-(7-(3-(cyclohexylamino)propoxy)-8-methyl-2-oxo-2H-chromen-3-yl)-4-hydroxy-3-(3-methylbut-2-en-1-yl)benzamide]: the results for the IC50 in assay [1] (setting [5]) and in [2] (setting [6]) were 0.66 ± 0.12 µM and 1.07 ± 0.35 µM, respectively.
Turning to `CC(C)=CCc1cc(C(=O)Nc2cc3ccc(OCCCN(C)C4CCCCC4)c(C)c3oc2=O)ccc1O` [Compound 70b], the IC50 was found to be 0.97 ± 0.03 µM in [1] (Table 5, alkylether derivatives with cyclic N-substitutions, read-out: SKBr3) and 1.08 ± 0.07 µM in [2] (Table 5, alkylether derivatives with cyclic N-substitutions, read-out: MCF-7).
`CC(C)=CCc1cc(C(=O)Nc2cc3ccc(OCCCNCc4ccccc4)c(C)c3oc2=O)ccc1O` [Compound 70e, N-(7-(3-(benzylamino)propoxy)-8-methyl-2-oxo-2H-chromen-3-yl)-4-hydroxy-3-(3-methylbut-2-en-1-yl)benzamide]: the IC50 is 0.47 ± 0.16 µM in assay [1] (setting [5]) and 0.91 ± 0.01 µM in [2] (setting [6]).
For `CC(C)=CCc1cc(C(=O)Nc2cc3ccc(OCCCN(C)[C@H](C)c4ccccc4)c(C)c3oc2=O)ccc1O` [Compound 70f, (R)-4-hydroxy-N-(8-methyl-7-(3-(methyl(1-phenylethyl)amino)propoxy)-2-oxo-2H-chromen-3-yl)-3-(3-methylbut-2-en-1-yl)benzamide], the values for the IC50 in assay [1] (setting [5]) and in assay [2] (setting [6]) were 1 ± 0.31 µM and 1.45 ± 0.2 µM, respectively.
The corresponding values for `CC(C)=CCc1cc(C(=O)Nc2cc3ccc(OCCCNC(C)(C)c4ccccc4)c(C)c3oc2=O)ccc1O` [Compound 70g, 4-hydroxy-N-(8-methyl-2-oxo-7-(3-((2-phenylpropan-2-yl)amino)propoxy)-2H-chromen-3-yl)-3-(3-methylbut-2-en-1-yl)benzamide] are 0.96 ± 0.01 µM and 1.07 ± 0.01 µM.
Taken in the same sequence, the figures for `CC(C)=CCc1cc(C(=O)Nc2cc3ccc(OCCCNC4C[C@H]5CC[C@@H]4C5)c(C)c3oc2=O)ccc1O` (stereo partly drawn) [Compound 70i, N-(7-(3-((1R,4S)-bicyclo[2.2.1]heptan-2-ylamino)propoxy)-8-methyl-2-oxo-2H-chromen-3-yl)-4-hydroxy-3-(3-methylbut-2-en-1-yl)benzamide] were 0.77 ± 0.13 µM and 1.03 ± 0.12 µM.
In the case of `Cc1c(OC2CCN(C)CC2)ccc2cc(NC(=O)Nc3cccc(-c4ccccc4)c3)c(=O)oc12` [H, H, 1-([1,1′-biphenyl]-3-yl)-3-(8-methyl-7-((1-methylpiperidin-4-yl)oxy)-2-oxo-2H-chromen-3-yl)urea], the results for the IC50 in assay [1] (setting [7]) and in [2] (setting [8]) were 0.38 µM and 0.32 µM, respectively.
The corresponding values for `COc1cccc(-c2cccc(NC(=O)Nc3cc4ccc(OC5CCN(C)CC5)c(C)c4oc3=O)c2)c1` [H, OMe, 1-(3′-methoxy-[1,1′-biphenyl]-3-yl)-3-(8-methyl-7-((1-methylpiperidin-4-yl)oxy)-2-oxo-2H-chromen-3-yl)urea] are 0.44 µM and 0.37 µM.
Consider `COc1ccc(NC(=O)Nc2cc3ccc(OC4CCN(C)CC4)c(C)c3oc2=O)cc1-c1ccccc1` [OMe, H, 1-(6-methoxy-[1,1′-biphenyl]-3-yl)-3-(8-methyl-7-((1-methylpiperidin-4-yl)oxy)-2-oxo-2H-chromen-3-yl)urea], for which the IC50 in assay [1] (setting [7]) was 0.45 µM; in [2] (setting [8]), 0.93 µM.
As for `CC(C)=CCc1cc(C(=O)Nc2cc3ccc(OCCCN4CCN(C)CC4)c(C)c3oc2=O)ccc1O` [drawing 143], the IC50 turned out to be 1.01 ± 0.03 µM in [1] (setting [9]) and 1.2 ± 0.12 µM in assay [2] (setting [10]).
Taken in the same sequence, the figures for `CC(C)=CCc1cc(C(=O)Nc2cc3ccc(OCCCN4CCOCC4)c(C)c3oc2=O)ccc1O` [drawing 145] were > 50 µM and > 50 µM.
The corresponding values for `CC(C)=CCc1cc(C(=O)Nc2cc3ccc(OCCCN4CCCCC4)c(C)c3oc2=O)ccc1O` [drawing 146] are > 50 µM and > 50 µM.
Taken in the same sequence, the figures for `CC(C)=CCc1cc(C(=O)Nc2cc3ccc(OCCCN4CCCC4)c(C)c3oc2=O)ccc1O` [drawing 147] were 0.72 ± 0.01 µM and 0.99 ± 0.04 µM.
Take `Cc1c(OC2CCN(C)CC2)ccc2cc(NC(=O)NC3CCCC3)c(=O)oc12` [drawing 167]: the IC50 is > 25 µM with MRC5 (Table 9, non-aryl ureas) and > 25 µM in the assay on HMLE (Table 9, non-aryl ureas).
With `Cc1c(OC2CCN(C)CC2)ccc2cc(NC(=O)NC3CCCCC3)c(=O)oc12` [drawing 168], the IC50 in the assay on MRC5 (Table 9, non-aryl ureas) is > 25 µM; with HMLE (Table 9, non-aryl ureas), > 25 µM.
`Cc1c(OC2CCN(C)CC2)ccc2cc(NC(=O)NC34CC5CC(CC(C5)C3)C4)c(=O)oc12` [drawing 169]: the IC50 in the assay with MRC5 (Table 9, non-aryl ureas) was 3.8 µM; with HMLE (Table 9, non-aryl ureas) it was > 25 µM.
With `Cc1c(OC2CCN(C)CC2)ccc2cc(NC(=O)NC(C)(C)C)c(=O)oc12` [drawing 170], the IC50 in the assay on MRC5 (Table 9, non-aryl ureas) is 21.1 µM; in the assay on HMLE (Table 9, non-aryl ureas) it was > 25 µM.
Taken in the same sequence, the figures for `Cc1c(OC2CCN(C)CC2)ccc2cc(NC(=O)N3CCN(C)CC3)c(=O)oc12` [drawing 171] were > 25 µM and > 25 µM.
On to `Cc1c(OC2CCN(C)CC2)ccc2cc(NC(=O)NCc3ccccc3)c(=O)oc12` [drawing 172], for which the IC50 is 20.9 µM with MRC5 (Table 9, non-aryl ureas) and > 25 µM in the assay with HMLE (Table 9, non-aryl ureas).
On to `Cc1c(OC2CCN(C)CC2)ccc2cc(NC(=O)N(C)Cc3ccccc3)c(=O)oc12` [drawing 173], for which the IC50 in the assay on MRC5 (Table 9, non-aryl ureas) was > 25 µM; in the assay with HMLE (Table 9, non-aryl ureas), > 25 µM.
On to `Cc1c(OC2CCN(C)CC2)ccc2cc(NC(=O)N(Cc3ccccc3)Cc3ccccc3)c(=O)oc12` [drawing 174], for which the IC50 in the assay on MRC5 (Table 9, non-aryl ureas) is 20.9 µM; in the assay with HMLE (Table 9, non-aryl ureas), 7.1 µM.
Taken in the same sequence, the figures for `Cc1c(OC2CCN(C)CC2)ccc2cc(NC(=O)NC(c3ccccc3)c3ccccc3)c(=O)oc12` [drawing 175] were 15.5 µM and 1.6 µM.
Take `Cc1c(OC2CCN(C)CC2)ccc2cc(NC(=O)Nc3cccc(C(F)(F)F)c3)c(=O)oc12` [m-CF3, 1-(8-methyl-7-((1-methylpiperidin-4-yl)oxy)-2-oxo-2H-chromen-3-yl)-3-(3-(trifluoromethyl)phenyl)urea]: the IC50 amounted to 0.26 µM in assay [1] (setting [11]); 0.28 µM in assay [2] (setting [12]); 0.043 µM with PC-3; 0.046 µM in the assay on A-549; 0.15 µM in the assay on MDA1986; 1.7 µM in the assay with JMAR. In addition, the IC50 with MDAMB231 was found to be 0.55 µM; in the assay with DRO81-1, 7.3 µM; in the assay with MRC5 (setting [13]), 1.6 µM; in the assay with HMLE (setting [14]), 16.8 µM.
Regarding `COc1cccc(NC(=O)Nc2cc3ccc(OC4CCN(C)CC4)c(C)c3oc2=O)c1` [m-OCH3], the IC50 is 1.15 µM in assay [1] (Table 6, substituted phenyl ureas, Breast Cancer, read-out: IC50 SKBr3) and 0.96 µM in assay [2] (Table 6, substituted phenyl ureas, Breast Cancer, read-out: IC50 MCF-3).
Turning to `Cc1c(OC2CCN(C)CC2)ccc2cc(NC(=O)Nc3cccc(Oc4ccccc4)c3)c(=O)oc12` [m-phenoxyl, 1-(8-methyl-7-((1-methylpiperidin-4-yl)oxy)-2-oxo-2H-chromen-3-yl)-3-(3-phenoxyphenyl)urea], the IC50 was 0.19 µM in assay [1] (setting [11]); 0.28 µM in assay [2] (setting [12]); 2.16 µM in the assay with PC-3; 1.02 µM with A-549; 0.57 µM with MDA1986; 2.4 µM in the assay with JMAR. In addition, the IC50 is 0.28 µM in the assay on MDAMB231, 3.1 µM in the assay on DRO81-1, 2.2 µM in the assay with MRC5 (setting [13]) and 5.2 µM with HMLE (setting [14]).
With `Cc1c(OC2CCN(C)CC2)ccc2cc(NC(=O)Nc3ccc(O)cc3)c(=O)oc12` [p-OH, 1-(4-hydroxyphenyl)-3-(8-methyl-7-((1-methylpiperidin-4-yl)oxy)-2-oxo-2H-chromen-3-yl)urea], the IC50 was found to be 1.38 µM in assay [1] (setting [11]) and 1.34 µM in [2] (setting [12]).
